Source: patent US20030153611A1, “1,3-Diarylprop-2-en-1-ones, compositions containing them and use thereof” (AVENTIS PHARMA S.A., priority 2001, published 2003)
Where a name gives a salt, the structure may show the parent alone.

Molecular target: T1, Tubulin (Sus scrofa, UniProt P02550+P02554)
T1 construct: Tubulin is purified from pig brains according to the published methods; from tissue; host or cells: pig brain
Assay: Assessment of the inhibition of tubulin polymerization (turbidimetry)
Assay type: biochemical, pig
Details: tubulin 10 μM, turbidity at 350 nm, 37° C.
Experimental: Tubulin is purified from pig brains according to the published methods (Shelanski et al., 1973, Proc. Natl, Acad. Sci. USA, 70, 765-768. Weingarten et al., 1975, Proc. Natl, Acad. Sci. USA, 72, 1858-1862). Briefly, the brains are ground and centrifuged in an extraction buffer. The tubulin, contained in the extract supernatant, is subjected to two successive cycles of polymerization at 37° C. and depolymerization at 4° C., before being separated from the MAPs (Microtubule Associated Proteins) by chromatography on a phosphocellulose P11 column (Whatman). The tubulin thus isolated is more than 95% pure. It is stored in a buffer known as RB/2 30% glycerol, the composition of which is MES-NaOH [2-(N-morpholino)ethanesulfonic acid] 50 mM, pH 6.8; MgCl2 0.25 mM; EGTA 0.5 mM; 30% glycerol (v/v), GTP (guanosine 5′-triphosphate) 0.2 mM.
The polymerization of the tubulin into microtubules is monitored by turbidimetry as follows; the tubulin is adjusted to a concentration of 10 μM (1 mg/ml) in the RB/2 30% glycerol buffer, to which is added 1 mM GTP and 6 mM MgCl2. The polymerization is initiated by increasing the temperature from 6° C. to 37° C. in a cuvette with a 1 cm optical pathlength, placed in a Uvikon 931 spectrophotometer (Kontron) equipped with a thermostatically-regulated cuvette holder. The increase in the turbidity of the solution is monitored at 350 nm.
The products are dissolved at 10 mM in DMSO and added at variable concentrations (0.5 to 10 μM) to the tubulin solution before polymerization. The IC50 value is defined as the concentration of product which inhibits 50% of the rate of polymerization. A product whose IC50 value is less than or equal to 3 μM is considered as very active.

T1 sequence (P02550 whole entry): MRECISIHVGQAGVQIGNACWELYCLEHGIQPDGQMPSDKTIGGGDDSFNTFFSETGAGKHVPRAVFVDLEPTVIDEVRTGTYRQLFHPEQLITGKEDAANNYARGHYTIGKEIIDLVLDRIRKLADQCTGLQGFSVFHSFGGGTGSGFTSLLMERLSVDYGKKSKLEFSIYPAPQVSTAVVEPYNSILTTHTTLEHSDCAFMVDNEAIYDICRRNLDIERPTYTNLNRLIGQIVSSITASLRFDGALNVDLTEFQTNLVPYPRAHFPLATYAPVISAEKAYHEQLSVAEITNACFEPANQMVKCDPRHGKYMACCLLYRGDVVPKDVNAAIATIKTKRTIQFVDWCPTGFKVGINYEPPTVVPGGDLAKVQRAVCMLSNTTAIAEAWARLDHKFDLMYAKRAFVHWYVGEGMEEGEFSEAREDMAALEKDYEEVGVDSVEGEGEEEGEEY
T1 sequence (P02554 whole entry): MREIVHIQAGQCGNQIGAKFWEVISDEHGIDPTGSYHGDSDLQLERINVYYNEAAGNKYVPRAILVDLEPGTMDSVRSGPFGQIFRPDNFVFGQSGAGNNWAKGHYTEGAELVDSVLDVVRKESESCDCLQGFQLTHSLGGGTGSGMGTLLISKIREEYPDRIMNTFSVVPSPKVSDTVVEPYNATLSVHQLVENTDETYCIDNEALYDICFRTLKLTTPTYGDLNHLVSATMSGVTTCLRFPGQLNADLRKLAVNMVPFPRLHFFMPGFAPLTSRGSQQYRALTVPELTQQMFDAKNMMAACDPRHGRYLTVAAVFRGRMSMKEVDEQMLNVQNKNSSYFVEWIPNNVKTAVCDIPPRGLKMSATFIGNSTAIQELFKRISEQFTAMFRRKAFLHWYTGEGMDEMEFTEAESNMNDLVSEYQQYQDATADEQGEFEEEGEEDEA

## COc1cc(C(=O)/C(C)=C/c2ccc3c(ccn3C)c2)cc(OC)c1OC [Example 5, E-2-Methyl-3-(1-methyl-1-H-indol-5-yl)-1-(3,4,5-trimethoxyphenyl)propenone]
  IC50: 0.7 µM

## COc1ccc(/C=C(\C)C(=O)c2cc(OC)c(OC)c(OC)c2)cc1NC(=O)[C@@H](N)CO [Example 13, (S)-2-Amino-3-hydroxypropanoic acid {2-methoxy-5-[2-methyl-3-oxo-3-(3,4,5-trimethoxyphenyl)propenyl]phenyl}amide hydrochloride]
  IC50: 10 µM
